Several values for one entry are separate records, joined by “and”; a condition that tells them apart may be missing. Equal entries are not always repeated. Where two headings read alike, the source gives them in different places.
How the values were obtained:
[1] = target: T1, BpGH94MLG (Blautia producta, UniProt A0A7G5MNS2); assay: Phosphorolysis activity of BpGH94MLG on substrates (TLC); format: biochemical, Blautia producta ATCC 27340; details: inorganic phosphate, 37 °C
T1 sequence (A0A7G5MNS2 1-804): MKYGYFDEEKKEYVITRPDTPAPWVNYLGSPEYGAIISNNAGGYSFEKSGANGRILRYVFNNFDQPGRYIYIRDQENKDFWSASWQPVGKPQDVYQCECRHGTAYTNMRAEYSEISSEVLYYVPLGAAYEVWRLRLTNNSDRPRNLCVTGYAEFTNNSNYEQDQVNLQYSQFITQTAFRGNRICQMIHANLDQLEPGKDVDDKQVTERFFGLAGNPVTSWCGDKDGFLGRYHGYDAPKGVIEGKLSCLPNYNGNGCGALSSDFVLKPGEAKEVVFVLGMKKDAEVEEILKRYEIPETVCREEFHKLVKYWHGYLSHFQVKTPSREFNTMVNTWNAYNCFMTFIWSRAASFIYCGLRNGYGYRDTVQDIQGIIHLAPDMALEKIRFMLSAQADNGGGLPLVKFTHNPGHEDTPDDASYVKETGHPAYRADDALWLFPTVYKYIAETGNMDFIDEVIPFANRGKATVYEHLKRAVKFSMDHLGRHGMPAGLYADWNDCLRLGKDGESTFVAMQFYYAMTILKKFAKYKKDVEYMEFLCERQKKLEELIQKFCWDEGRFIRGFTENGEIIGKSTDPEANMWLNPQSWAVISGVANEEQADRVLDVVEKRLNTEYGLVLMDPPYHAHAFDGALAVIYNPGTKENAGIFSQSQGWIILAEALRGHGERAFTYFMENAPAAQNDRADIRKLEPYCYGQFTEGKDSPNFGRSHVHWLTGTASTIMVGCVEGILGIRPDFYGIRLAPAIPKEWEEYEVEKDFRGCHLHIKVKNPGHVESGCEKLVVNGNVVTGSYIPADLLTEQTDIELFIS
Procedure: (§1) TLC was used for analyzing enzymatic actions. […] Kinetics parameters for BpGH94MLG were determined with G4G3G, G4G4G3G and cellotriose, following a p-hydroxybenzoic acid hydrazide (PAHBAH) reducing sugar assay ([69]).

[2] = target: BpSBPMLG (Blautia producta, UniProt A0ABX6JB09); assay: Isothermal titration calorimetry of oligosaccharide binding to BpSBPMLG; design: species or system Blautia producta ATCC 27340
Procedure: The binding of β-(1,4), β-(1,3), and MLG-oligosaccharides to BpSBPMLG was measured at 25 °C in 10 mM sodium phosphate buffer (pH 7) using a MicroCal PEAQ-ITC (Malvern). The protein was extensively dialyzed against 10 mM sodium phosphate and all glycan ligands were also dissolved in the same buffer to minimize the heat of dilution. 13 injections of an oligosaccharide were titrated on BpSBPMLG present in the sample cell. Various preliminary titration setups were tried by changing amounts of protein (5–100 μM) and ligand (50 μM–10 mM) to get the best experimental conditions. Thermodynamic binding parameters [calculates binding affinity (Kd), stoichiometry (n), enthalpy (ΔH), Gibbs free energy change (ΔG), and entropy (ΔS)] were determined using the MicroCal PEAQ-ITC analysis software.

[3] = target: BpGH3-AR8MLG (Blautia producta, UniProt A0ABX6J8C8); format: biochemical, Blautia producta ATCC 27340; details: for Km / kcat: PAHBAH assay, 100 mM HEPES pH 6.5, 37 °C
Procedure: (§2) 150 μl of a freshly prepared 8:2 mixture of reagent A (50 mM sodium sulfite, 0.3 M 4-hydroxybenzhydrazide and 0.6 M HCl) and reagent B (50 mM trisodium citrate, 10 mM CaCl2, 0.5 M NaOH) were added to 50 μl sample. The reaction cocktail was boiled for 10 min at 100 °C. After the reaction was cooled down, the absorbance was recorded at 410 nm using the SpectraMax i3x multi-mode microplate reader. A calibration curve with different concentrations of glucose (0, 2, 4, 8, 16, 40, 80, 100, 200, 300, and 500 μM) was employed for each experiment to calculate the released amount of glucose (reducing end equivalents). The same samples were also used for control measurement, and the control value was subtracted from test reading prior to calculate kinetics parameters. In all cases, the Km, Vmax, and kcat were analyzed on GraphPad Prism. Three independent replicates were used for each test. TLC analyses were used for understanding the enzymatic degradation profiles of various oligosaccharides.

[4] = test system: BpGH16MLG; assay: Initial screening of BpGH16MLG against substrates (TLC); format: biochemical, Blautia producta ATCC 27340; details: pH 5.7, 37 °C, 2 h
Procedure: After the appropriate incubation time, the reaction was terminated by boiling (5 min), and generated oligosaccharides were analyzed by thin layer chromatography (TLC). Typically, 1 μl of the reaction mixture was used for TLC analysis. TLC analysis was performed on Silica Gel 60 F254 (Merck), and produced sugars were visualized by spraying TLC with 5% H2SO4 in ethanol, followed by heating.

[5] = test system: TaCDP; design: method as in PMID 28687766; details: phosphorolytic reaction; cited from earlier work
[6] = target: T2, BpGH3-X62MLG (Blautia producta, UniProt A0ABX6JIM0); assay: Hydrolysis kinetics of BpGH3-X62MLG (PAHBAH assay, TLC)
T2 sequence (A0ABX6JIM0 1-920): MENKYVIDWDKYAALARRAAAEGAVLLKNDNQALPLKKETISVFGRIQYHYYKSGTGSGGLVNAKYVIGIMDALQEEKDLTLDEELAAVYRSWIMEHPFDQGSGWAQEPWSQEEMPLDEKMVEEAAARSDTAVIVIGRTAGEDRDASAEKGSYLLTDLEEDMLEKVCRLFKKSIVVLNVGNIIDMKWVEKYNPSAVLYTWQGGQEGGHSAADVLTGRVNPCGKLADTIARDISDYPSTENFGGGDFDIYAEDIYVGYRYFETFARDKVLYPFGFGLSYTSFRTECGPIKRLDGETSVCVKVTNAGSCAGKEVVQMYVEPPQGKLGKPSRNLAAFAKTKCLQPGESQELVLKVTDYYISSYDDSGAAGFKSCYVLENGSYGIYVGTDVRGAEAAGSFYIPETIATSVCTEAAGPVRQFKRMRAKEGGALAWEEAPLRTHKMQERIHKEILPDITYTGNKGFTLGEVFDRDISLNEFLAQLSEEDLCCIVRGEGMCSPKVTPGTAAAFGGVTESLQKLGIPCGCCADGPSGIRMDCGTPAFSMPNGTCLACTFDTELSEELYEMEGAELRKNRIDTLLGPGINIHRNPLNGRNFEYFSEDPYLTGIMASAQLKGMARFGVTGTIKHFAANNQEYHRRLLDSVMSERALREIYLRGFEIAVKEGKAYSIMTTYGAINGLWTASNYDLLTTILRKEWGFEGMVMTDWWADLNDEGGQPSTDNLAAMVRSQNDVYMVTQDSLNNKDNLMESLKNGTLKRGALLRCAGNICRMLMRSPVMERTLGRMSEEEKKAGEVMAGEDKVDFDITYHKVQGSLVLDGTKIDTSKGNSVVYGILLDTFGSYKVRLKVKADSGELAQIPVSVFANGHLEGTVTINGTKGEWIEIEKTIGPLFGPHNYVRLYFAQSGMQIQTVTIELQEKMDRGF
Procedure: as §2

[7] = target: T1, BpGH94MLG; assay: Phosphorolysis kinetics of BpGH94MLG (PAHBAH assay); format: biochemical, Blautia producta ATCC 27340
Procedure: as §1

[8] = ITC at 25 °C, 10 mM sodium phosphate pH 7.0

Chain of BpSBPMLG (A0ABX6JB09 entry or part of it): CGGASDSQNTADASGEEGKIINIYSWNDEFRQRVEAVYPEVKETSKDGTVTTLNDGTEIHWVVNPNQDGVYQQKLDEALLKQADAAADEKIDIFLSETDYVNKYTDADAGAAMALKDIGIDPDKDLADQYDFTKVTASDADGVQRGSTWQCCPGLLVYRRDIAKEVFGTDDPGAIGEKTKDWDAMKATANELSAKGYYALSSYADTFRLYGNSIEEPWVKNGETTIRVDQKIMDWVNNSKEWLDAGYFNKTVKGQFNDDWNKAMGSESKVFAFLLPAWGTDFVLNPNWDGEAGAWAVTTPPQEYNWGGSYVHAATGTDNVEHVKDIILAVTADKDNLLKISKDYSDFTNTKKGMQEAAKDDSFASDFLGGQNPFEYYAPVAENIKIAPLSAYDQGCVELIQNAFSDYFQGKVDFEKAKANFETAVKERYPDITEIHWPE
Chain of BpGH3-AR8MLG (A0ABX6J8C8 entry or part of it): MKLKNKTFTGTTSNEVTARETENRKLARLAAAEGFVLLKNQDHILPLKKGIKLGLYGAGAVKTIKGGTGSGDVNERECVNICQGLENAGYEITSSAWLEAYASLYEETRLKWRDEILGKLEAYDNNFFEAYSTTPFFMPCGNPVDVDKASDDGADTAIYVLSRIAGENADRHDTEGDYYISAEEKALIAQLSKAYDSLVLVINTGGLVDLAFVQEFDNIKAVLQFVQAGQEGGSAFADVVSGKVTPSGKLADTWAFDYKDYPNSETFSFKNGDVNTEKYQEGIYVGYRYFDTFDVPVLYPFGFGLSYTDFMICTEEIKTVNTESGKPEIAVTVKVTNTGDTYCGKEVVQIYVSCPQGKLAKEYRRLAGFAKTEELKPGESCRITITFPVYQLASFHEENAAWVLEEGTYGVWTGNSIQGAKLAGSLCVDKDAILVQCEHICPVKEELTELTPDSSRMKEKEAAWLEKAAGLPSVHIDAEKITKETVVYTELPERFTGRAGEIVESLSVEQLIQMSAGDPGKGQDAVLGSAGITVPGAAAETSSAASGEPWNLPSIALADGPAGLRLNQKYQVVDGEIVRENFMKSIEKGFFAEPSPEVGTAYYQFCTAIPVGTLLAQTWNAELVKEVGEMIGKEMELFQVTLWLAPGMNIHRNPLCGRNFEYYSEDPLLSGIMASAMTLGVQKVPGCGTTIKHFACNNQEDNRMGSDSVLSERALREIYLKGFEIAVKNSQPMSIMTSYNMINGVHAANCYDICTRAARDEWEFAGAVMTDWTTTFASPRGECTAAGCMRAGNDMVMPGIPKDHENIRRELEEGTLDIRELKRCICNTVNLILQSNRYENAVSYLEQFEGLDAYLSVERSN

Compound	phosphorolysis activity of BpGH94MLG (in words) [1]	Kd [2] [µM]	binding to BpSBPMLG (in words) ([2]; ITC)	-TΔS^0 [2, 8] [kcal/mol]	n (binding stoichiometry) [2, 8]	ΔG^0 [2, 8] [kcal/mol]	ΔH [2, 8] [kcal/mol]	Km [3] [µM]	kcat [3] [s⁻¹]	activity of BpGH16MLG on substrate (initial screening) [4]	also measured
O=C[C@H](O)[C@@H](O)[C@H](O[C@@H]1O[C@H](CO)[C@@H](O)[C@H](O)[C@H]1O)[C@H](O)CO [Cellobiose]	did not show any phosphorolysis activity	30.6	some affinity	0.8	0.78± 0.18	-6.2	-7.0 ± 2.2	200 ± 30	8 ± 0.1	did not show activity	Km [5]: 120 µM; kcat [5]: 0.23 s⁻¹
OC[C@H]1O[C@@H](O[C@H]2[C@H](O)[C@@H](O)[C@H](O[C@H]3[C@H](O)[C@@H](O)[C@H](O[C@H]4[C@H](O)[C@@H](O)C(O)O[C@@H]4CO)O[C@@H]3CO)O[C@@H]2CO)[C@H](O)[C@@H](O)[C@@H]1O (stereo partly drawn) [Cellotetraose]		0.75		8.25	0.45 ± 0.02	-8.35	-16.6 ± 0.75	470 ± 60	20 ± 0.2		n (binding stoichiometry) ([2]; ITC at 25 °C, 10 mM sodium phosphate pH 7.0, listed as cellotetraose): 0.45
OC[C@H]1O[C@@H](O[C@H]2[C@H](O)[C@@H](O)[C@H](O[C@H]3[C@H](O)[C@@H](O)[C@H](O[C@H]4[C@H](O)[C@@H](CO)OC(O)[C@@H]4O)O[C@@H]3CO)O[C@@H]2CO)[C@H](O)[C@@H](O)[C@@H]1O (stereo partly drawn) [G4G4G3G, Glc-β-1-4-Glc-β-1-4-Glc-β-1-3-Glc]		5.14		5.7	0.77 and 0.77 ± 0.02	-7.22	-12.9 ± 0.85				kcat ([6]; PAHBAH assay, 100 mM HEPES pH 6.5, 37 °C): 18 ± 0.3 s⁻¹; cleavage by BpGH3-X62MLG (in words) ([6]; TLC): cleaved; Km fold-change [7]: ~0.75 fold; kcat/Km higher compared to G4G3G [7]: 1.6 fold; kcat/Km higher compared to cellotriose [7]: 2.4 fold; Kd [2, 8]: 5.14 µM; cleavage by BpGH3-AR8MLG (in words) ([3]; TLC): cleaved
OC[C@H]1O[C@@H](O[C@H]2[C@H](O)[C@@H](CO)OC(O)[C@@H]2O)[C@H](O)[C@@H](O)[C@@H]1O (stereo partly drawn) [Laminaribiose]	did not show any phosphorolysis activity	22.1	some affinity		1.03 ± 0.02	-6.35	-3.14 ± 0.16	240 ± 30	12 ± 0.2	did not show activity	
OC[C@H]1O[C@@H](O[C@@H]2[C@@H](O)[C@H](O[C@@H]3[C@@H](O)[C@H](O[C@H]4[C@H](O)[C@@H](CO)OC(O)[C@@H]4O)O[C@H](CO)[C@H]3O)O[C@H](CO)[C@H]2O)[C@H](O)[C@@H](O)[C@@H]1O (stereo partly drawn) [Laminaritetraose]				5.29			-0.15 ± 0.12				Kd ([2]; ITC, read-out: Kd): 5600 µM
OC[C@H]1O[C@@H](O[C@@H]2[C@@H](O)[C@H](O[C@H]3[C@H](O)[C@@H](CO)OC(O)[C@@H]3O)O[C@H](CO)[C@H]2O)[C@H](O)[C@@H](O)[C@@H]1O (stereo partly drawn) [Laminaritriose]	did not show any phosphorolysis activity	3.41		3.8	0.9 ± 0.01	-7.46	-3.66 ± 0.02			did cleave	

From article PMC10318527, “Utilization of dietary mixed-linkage β-glucans by the Firmicute Blautia producta” (The Journal of Biological Chemistry, 2023)
